Assay results taken from EP3818828A1 (priority 2019, dated 2021).
Where two headings read alike, the source gives them in different places.

Assays:
Assay type in all cases: cell-based
Exserohilum turcicum = experiment: Ex vivo mycelial growth inhibition, growth rate method; conditions: 1 mg/mL
Description: (§1) 3-(3',4'-methylenedioxy phenyl)-N-n-propyl acrylamide (at a purity of 99%), 3-(3',4'-methylenedioxy phenyl)-piperidine acrylate (at a purity of 99%), the control agents, 96.5% of chlorothalonil technical (non-systemic broad-spectrum fungicide), 97.2% of carbendazim technical (systemic broad-spectrum fungicide), 97.0% of procymidone technical (systemic fungicide), 96.0% of dimethomorphtechnical ((E,Z)-4-[3-(4-chlorphenyl)3-(3,4-dimethoxy phenyl)acryloyl]morpholine, systemic fungicide), 97.0% of azoxystrobin technical (systemic broad-spectrum fungicide).
(§2) The inhibition of samples for testing on the mycelial growth of plant pathogenic fungi for testing is determined with a growth rate method. 3-(3',4'-methylenedioxy phenyl)-N-n-propyl acrylamide, 3-(3',4'-methylenedioxy phenyl)-piperidine acrylate and five control agents are dissolved with dimethyl sulfoxide (DMSO), then formulated at 5-7 concentrations of different gradients for test following the trial test results, with the same concentration of DMSO as the control solvent, each treatment in triplicate. Fungal cakes with a diameter of 4 mm are taken from the edge of the colony, inoculated into the center of a PDA plate containing different agents of different concentrations and the DMSO control, with one piece of fungal cake inoculated in each plate (with a diameter of […]), and incubated in a constant temperature incubator at a temperature of 22±1.5°C. 7 days later (10-20 days may be needed for some pathogenic fungi), the diameter of the colony is measured with a cross over method according to the mycelial growth profile of the control pathogenic fungi, then the inhibition rate of mycelial growth is calculated.
(§3) The computational formula is as below: the inhibition rate of mycelial growth (%) = [(the diameter of the control colony - the diameter of the treated colony)/the diameter of the control colony] × 100.
(§4) The inhibition results of each agent at a concentration of 1 mg/mL on the mycelial growth of plant pathogenic fungi are shown in Tables 1 and 2.

Mycosphaerlla melonis = experiment: as above; conditions: 1 mg/mL
Description: as §1, §2, §3, §4

[1] = system: F. oxysporum f. sp. vasinfectum; experiment: as above; conditions: 1 mg/mL; for inhibition at 1000 µg/mL: Fusarium oxysporum
Description: as §1, §2, §3, §4

Sclerotinia sclerotiorum = experiment: as above; conditions: 1 mg/mL
Description: as §1, §2, §3, §4

Botrytis cinerea = experiment: as above; conditions: 1 mg/mL
Description: as §1, §2, §3, §4

C. gossypii = experiment: as above; conditions: for Average Diameter of the Colony: C. gossypii; for inhibition at 1000 µg/mL: Colletotrichum gossypii, read-out: Inhibition Rate
Description: as §1, §2, §3, §4

F. oxysporum f. sp. lini = experiment: as above; conditions: 1 mg/mL; for inhibition at 1000 µg/mL: Fusarium oxysporum
Description: as §1, §2, §3, §4

Phytophthora capsici = experiment: as above; conditions: Phytophthora capsici; 1 mg/mL
Description: as §1, §2, §3, §4

Pyricularia grisea = experiment: microbe, parasite or virus in culture; conditions: for Average Diameter of the Colony: 1 mg/mL; for inhibition at 1000 µg/mL: read-out: Inhibition Rate
F. graminearum = experiment: microbe, parasite or virus in culture; conditions: for Average Diameter of the Colony: F. graminearum, 1 mg/mL; for inhibition at 1000 µg/mL: Fusarium graminearum, read-out: Inhibition Rate
Phytophthora infestans = experiment: microbe, parasite or virus in culture; conditions: for Average Diameter of the Colony: 1 mg/mL; for inhibition at 1000 µg/mL: read-out: Inhibition Rate

SMILES	Average Diameter of the Colony (Exserohilum turcicum) [cm]	inhibition at 1000 µg/mL (Exserohilum turcicum) [%]	Average Diameter of the Colony (Mycosphaerlla melonis) [cm]	inhibition at 1000 µg/mL (Mycosphaerlla melonis) [%]	Average Diameter of the Colony [1] [cm]	inhibition at 1000 µg/mL [1] [%]	Average Diameter of the Colony (Sclerotinia sclerotiorum) [cm]	inhibition at 1000 µg/mL (Sclerotinia sclerotiorum) [%]	Average Diameter of the Colony (Botrytis cinerea) [cm]	inhibition at 1000 µg/mL (Botrytis cinerea) [%]	Average Diameter of the Colony (C. gossypii; 1 mg/mL) [cm]	Average Diameter of the Colony (F. oxysporum f. sp. lini) [cm]	inhibition at 1000 µg/mL (F. oxysporum f. sp. lini) [%]	Average Diameter of the Colony (Phytophthora capsici) [cm]	inhibition at 1000 µg/mL (Phytophthora capsici) [%]	Average Diameter of the Colony (Pyricularia grisea) [cm]	inhibition at 1000 µg/mL (Pyricularia grisea) [%]	Average Diameter of the Colony (F. graminearum) [cm]	inhibition at 1000 µg/mL (F. graminearum) [%]	Average Diameter of the Colony (Phytophthora infestans) [cm]	other results
CO/C=C(/C(=O)OC)c1ccccc1Oc1cc(Oc2ccccc2C#N)ncn1 [Azoxystrobin, azoxystrobin]	6.50	27.8	3.93	56.3	3.03	66.3	4.40	51.1	4.33	51.9	5.37	5.93	34.1	6.70	25.6	4.67	48.1	6.23	30.8	0.00	inhibition at 1000 µg/mL (C. gossypii): 40.3%; inhibition at 1000 µg/mL (Phytophthora infestans): 100%
COc1ccc(C(=CC(=O)N2CCOCC2)c2ccc(Cl)cc2)cc1OC [Dimethomorph, (E,Z)-4-[3-(4-chlorphenyl)3-(3,4-dimethoxyphenyl)acryloyl]morpholine]	6.50	27.8	2.13	76.3	6.03	33	4.77	47	2.33	74.1	3.93	6.27	30.3	0.00	100	6.67	25.9	6.23	30.8	0.00	inhibition at 1000 µg/mL (C. gossypii; C. cossypii, 1 mg/mL): 56.3%; inhibition at 1000 µg/mL (Phytophthora infestans): 100%
